Measured values from patent US20060094664A1, “Deoxycholic acid derivatives for the treatment of acute dysfunctions of portal and hepatic venous circulation” (priority 2002, published 2006).
Marks after values point to notes of the source that are not given here.

Key:
[1] = test system: Wistar rats subjected to ligature of bile duct; test: Portal and systemic pressure after a week treatment in rats with bile duct ligature; assay type: in vivo, rat; conditions: for Portal pressure After a week treatment: bile duct ligated Wistar rats, 0.04 mmol/kg twice a day intragastric for one week
Source text: Twenty one Wistar rats were divided in three groups of 7 animals each and then subjected to ligature of bile duct. Within three weeks following the ligature, the animals were left on rest. As a consequence of the bile duct ligature, the animals developed dysfunctions of the hepatic and portal venous circulation. At the end of the third week, each group underwent the following weekly treatment protocol: • Group 1: control group treated with carrier (1% w/v water suspension of carboxymethylcellulose); • Group 2: treated with NO-urso at a dose of 28 mg/kg (0.04 mmol/kg), twice a day; • Group 3: treated with ursodeoxycholic acid (urso in table) at a dose of 15 mg/kg (0,04 mmol/kg), twice a day. The rested compounds have been administered by intragastric cannula in 1% water suspension of carboxymethylcellulose. At the end of the treatment (fourth week) the animals were anaesthetized with urethane and then systemic pressure (MAP) and portal pressure (PP) were monitored by catheterisation both of the carotid and portal vein. The animal liver was then continuously perfused with Krebs solution (40 ml/min) balanced with O2/CO2 (95%-5%) using a peristaltic pump (Gilson) In this way the pharmacological effect of both tested compounds has been evaluated.

[2] = test system: Wistar rats subjected to ligature of bile duct; test: Hepatic fibrosis evaluated by an immunocytochemical method in bile duct ligated rats; assay type: in vivo, rat; conditions: a week treatment in bile duct ligated rats
Source text: Twenty one Wistar rats were divided in three groups of 7 animals each and then subjected to ligature of bile duct. Within three weeks following the ligature, the animals were left on rest. As a consequence of the bile duct ligature, the animals developed dysfunctions of the hepatic and portal venous circulation. At the end of the third week, each group underwent the following weekly treatment protocol: • Group 1: control group treated with carrier (1% w/v water suspension of carboxymethylcellulose); • Group 2: treated with NO-urso at a dose of 28 mg/kg (0.04 mmol/kg), twice a day; • Group 3: treated with ursodeoxycholic acid (urso in table) at a dose of 15 mg/kg (0,04 mmol/kg), twice a day.

[3] = test system: rat liver perfused with norepinephrine solution; test: Perfused rat liver: intrahepatic constriction induced by norepinephrine, infusion of tested compound; assay type: in vivo; conditions: for Portal pressure % increase after NE infusion: liver perfused with norepinephrine 1 μM, then single infusion of 1 mM solution of tested compound
Description: At the end of the treatment (fourth week) the animals were anaesthetized with urethane and then systemic pressure (MAP) and portal pressure (PP) were monitored by catheterisation both of the carotid and portal vein. The animal liver was then continuously perfused with Krebs solution (40 ml/min) balanced with O2/CO2 (95%-5%) using a peristaltic pump (Gilson) In this way the pharmacological effect of both tested compounds has been evaluated. The rat liver was then firstly perfused with norepinephrine solution (1 μM) in order to induce an intrahepatic circulation constriction. Afterwards, in groups 2 and 3 a single infusion with a 1 mM solution of each of the tested compounds was carried out and portal pressure variations have been monitored.

influence on systemic hemodynamic parameters (systemic pressure, cardiac frequency) ([1]; a week treatment in bile duct ligated rats)	Systemic hemodynamic parameters: Systemic pressure (MAP) ([1]; bile duct ligated rats after a week treatment, 0.04 mmol/kg twice a day, carotid catheterisation, in mmHg (unit assumed))	Systemic hemodynamic parameters: Cardiac frequency ([1]; bile duct ligated rats after a week treatment, 0.04 mmol/kg twice a day, in beats/min (unit assumed))	Compound	portal pressure reduction ([1]; after the week treatment, perfusion rate 40 ml/min, with respect to controls)	Portal pressure After a week treatment ([1]; perfusion rate 40 ml/min)	influence on systemic hemodynamic parameters (systemic pressure, cardiac frequency) ([1]; rat, in vivo)	influence on hepatic fibrosis [2]	influence on hepatic fibrosis ([2]; listed as No-urso)	increase of intrahepatic resistance induced by norepinephrine ([3]; 500% increase determined by NE infusion, NO-urso p<0.001)	Portal pressure % increase after NE infusion [3]	portal pressure increase with respect to controls ([1]; after the week treatment, perfusion rate 40 ml/min)
–	–	–	COc1cc(/C=C/C(=O)OCCCCO[N+](=O)[O-])ccc1OC(=O)CC[C@@H](C)[C@H]1CC[C@H]2[C@@H]3[C@@H](O)C[C@@H]4C[C@H](O)CC[C@]4(C)[C@H]3CC[C@]12C [NO-urso, (3α,5β,7β)-3,7-dihydroxycholan-24-oic Acid 2-methoxy-4[3-[4-(nitrooxy)butoxy]-3-oxo-1-propenyl]phenyl Ester]	3 mmHg	14* mmHg	do not influence	does not modify	do not influence	significantly reduced	180%	–
do not influence	95 ± 12	372 ± 41	C[C@H](CCC(=O)O)[C@H]1CC[C@H]2[C@@H]3[C@@H](O)C[C@@H]4C[C@H](O)CC[C@]4(C)[C@H]3CC[C@]12C [Urso, ursodeoxycholic acid]	–	19 mmHg	–	–	–	–	400%	2 mmHg
